In article PMC9080042, “Biochemical and kinetic characterization of laccase and manganese peroxidase from novel Klebsiella pneumoniae strains and their application in bioethanol production” (RSC Advances, 2018):

Legend:
Assay in all cases: ABTS oxidation at […] nm, Lineweaver-Burk
Format in all cases: biochemical, Klebsiella pneumoniae
laccase (NITW715076_2) = tested on: T1, laccase (NITW715076_2); conditions: 0.1 M citrate buffer pH 5.0, optimum temperature (60 °C); methods call the enzyme partially purified; read-out: Laccase / K m
T1 construct: gene lac; native extracellular enzyme from culture supernatant; ammonium sulphate, dialysis, DEAE-sepharose; 66 kDa by SDS-PAGE; gene not identified

laccase (NITW715076) = tested on: T2, laccase (NITW715076); conditions: 0.1 M citrate buffer pH 5.0, optimum temperature (50 °C); methods call the enzyme partially purified; read-out: Laccase / K m
T2 construct: gene lac; native extracellular enzyme from culture supernatant; ammonium sulphate, dialysis, DEAE-sepharose; 66 kDa by SDS-PAGE; gene not identified

laccase (NITW715076_1) = tested on: T3, laccase (NITW715076_1); conditions: 0.1 M citrate buffer pH 5.0, optimum temperature (50 °C); methods call the enzyme partially purified; read-out: Laccase / K m
T3 construct: gene lac; native extracellular enzyme from culture supernatant; ammonium sulphate, dialysis, DEAE-sepharose; 66 kDa by SDS-PAGE; gene not identified

With `CCn1c(=NN=c2sc3cc(S(=O)(=O)O)ccc3n2CC)sc2cc(S(=O)(=O)O)ccc21` [ABTS, 2,2′-azino-bis(3-ethylbenzothiazoline)-6-sulfonic acid] the Km (laccase (NITW715076_2)) was 380 µM, the Km (laccase (NITW715076)) was 467 µM and the Km (laccase (NITW715076_1)) was 3970 µM.
